Data reported in patent US5798382A, “2,3-dihydrobenzofuran derivatives, method for producing the same, and use thereof” (Asahi Kasei Kogyo Kabushiki Kaisha, priority 1994, dated 1998).

Columns and labels:
adrenaline α1 receptor = test: Affinity for adrenaline α1 receptor: inhibition of 3H-Prazosin binding to rat cerebral cortex membrane fraction; design: species or system rat (male SD strain); conditions: for Ki: 3H-Prazosin, rat cerebral cortex membrane, 25° C. 30 min, tested as hydrochloride salt
Method: A male SD strain rat (7-week old; Charles River) was decapitated, and brain was taken out therefrom quickly. Cerebral cortex of the rat was separated and extracted at […] under ice cooling. The extracted cerebral cortex was frozen at -80° C. for 24 hours or longer. This frozen system was gradually thawed under ice cooling and then, 50 mM Tris-HCl buffer (pH 7.4) was added to the brain under ice cooling to obtain a suspension. The resultant suspension was homogenized, and then subjected to centrifugation at 48,000 g for 15 minutes, to thereby obtain a precipitate. The precipitate thus obtained was washed twice and resuspended in the same Tris-HCl buffer as used above. […] The total volume amount of the reaction mixture was 1 ml. The resultant reaction mixture was subjected to suction filtration using a Whatman GF/C filter, and the filter was washed three times in 50 mM Tris-HCl buffer (pH 7.4, 4 ml), transferred to a vial and then, the radioactivity of Prazosin absorbed on the filter was determined using a liquid scintillation counter. […] On the other hand, substantially the same procedure as mentioned above was repeated, except that 100 nM (final concentration) Prazosin was added to the ^3 H-Prazosin and ascorbic acid. The radioactivity of ^3 H-Prazosin adsorbed on the filter was determined in the same manner as mentioned above. […] Further, substantially the same procedure as mentioned above was repeated, except that, instead of Prazosin, a test compound was used in a predetermined concentration. The radioactivity of ^3 H-Prazosin adsorbed on the filter was determined in the same manner as mentioned above. […] The binding inhibition ratios were plotted, taking the logarithmic value of the concentration of the test compound as the abscissa value, and the binding inhibition ratio as the ordinate value. Then, a curve was drawn by the non-linear least square method.

Suncus murinus = test: Activities against emesis: acceleration-stimulus induced emesis in suncus; assay type: in vivo; conditions: stimulus (4 cm, 1 Hz) 30 minutes after, 4 suncus, hydrochloride salt, physiological saline 0.55
Excerpt: The activities of individual compounds against emesis were examined using Suncus murinus. Suncus murinus is a small animal belonging to the Soricidae family. It has been known that suncus is likely to suffer from motion sickness and is susceptible to occurrence of emesis [see "Seitai-no-kagaku (Science of living body)", 42, 538 (1990)]. Suncus is likely to show symptoms like the symptoms of human motion sickness under the stimulus of simple acceleration, finally leading to the occurrence of emesis. It has been known that a drug, such as cisplatin, has an emesis-inducing activity.
In this test, test compounds were individually administered intraperitoneally to suncus. 30 minutes after the administration, acceleration-stimulus (amplitude: 4 cm; frequency; 1 Hz) was given to the suncus, and the suncus thus treated was observed as to whether emesis occurred or not.
Each of the compounds (1) used in the above tests was tested in the form of a hydrochloride salt thereof, and represented in Table 3 by the compound number used in Examples described below.

Row | SMILES | Ki (adrenaline α1 receptor) | Time for occurrence of emesis (Suncus murinus; 1 mg/kg intraperitoneally) | other results
1 | O=C(NCCCCNCC1Cc2ccccc2O1)c1ccc2ccccc2c1 (centres unmarked) [Compound 102B, 2-{N-[4-(2-naphthoylamino)butyl]}aminomethyl-2,3-dihydrobenzo[b]furan] | 140 nM | – | –
2 | O=S(=O)(NCCCCNCC1Cc2ccccc2O1)c1ccc2ccccc2c1 (centres unmarked) [Compound 115B, 2-{N-[4-(2-naphthylsulfonylamino)butyl]}aminomethyl-2,3-dihydrobenzo[b]furan] | – | 5.56 min. sec | –
3 | O=C(NCCCCNCC1Cc2ccccc2O1)c1ccco1 (centres unmarked) [Compound 108B, 2-{N-[4-(2-furylcarbonylamino)butyl]}aminomethyl-2,3-dihydrobenzo[b]furan] | – | 4.56 min. sec | –
4 | O=C(NCCCCNCC1Cc2ccccc2O1)c1ccsc1 (centres unmarked) [Compound 107B, 2-{N-[4-(3-thienylcarbonylamino)butyl]}aminomethyl-2,3-dihydrobenzo[b]furan] | 230 nM | – | –
5 | COc1cc2nc(N3CCN(C(=O)c4ccco4)CC3)nc(N)c2cc1OC [^3 H-Prazosin, reference compound] | – | – | Kd (adrenaline α1 receptor; radioactive ligand, used in Ki calculation): 0.133 nM
6 | O=C(NCCCNCC1Cc2ccccc2O1)c1cccc2ccccc12 (centres unmarked) [Compound 113B, 2-{N-[3-(1-naphthoylamino)propyl]}aminomethyl-2,3-dihydrobenzo[b]furan] | 95 nM | 7.44 min. sec | –

The next lines start with results.

Row | Ki (adrenaline α1 receptor) | SMILES | Time for occurrence of emesis (Suncus murinus; 1 mg/kg intraperitoneally) | other results
7 | 96 nM | O=S(=O)(NCCCCNCC1Cc2ccccc2O1)c1cccc2ccccc12 (centres unmarked) [Compound 114B, 2-{N-[4-(1-naphthylsulfonylamino)butyl]}aminomethyl-2,3-dihydrobenzo[b]furan] | 3.50 min. sec | –
8 | 240 nM | O=C(NCCCCNCC1Cc2ccccc2O1)c1cccs1 (centres unmarked) [Compound 106B, 2-{N-[4-(2-thienylcarbonylamino)butyl]}aminomethyl-2,3-dihydrobenzo[b]furan] | 8.50 min. sec | –
9 | 150 nM | O=C(NCCCCNCC1Cc2ccccc2O1)c1cccc2ccccc12 (centres unmarked) [Compound 101B, 2-{N-[4-(1-naphthoylamino)butyl]}aminomethyl-2,3-dihydrobenzo[b]furan] | – | –
10 | 320 nM | O=C(NCCNCC1Cc2ccccc2O1)c1cccc2ccccc12 (centres unmarked) [Compound 112B, 2-{N-[2-(1-naphthoylamino)ethyl]}aminomethyl-2,3-dihydrobenzo[b]furan] | – | Time for occurrence of emesis (Suncus murinus; 3 mg/kg intraperitoneally): 6.03 min. sec
11 | 530 nM | CN(CCCCNC(=O)c1cccs1)CC1Cc2ccccc2O1 (single isomer, unassigned; (-)) [Compound 116A, (-)-2-{N-methyl-N-[4-(2-thienylcarbonylamino)butyl]}aminomethyl-2,3-dihydrobenzo[b]furan] | – | –
12 | 580 nM | CCN(CCCCNC(=O)c1cccs1)CC1Cc2ccccc2O1 (single isomer, unassigned; (-)) [Compound 117A, (-)-2-{N-ethyl-N-[4-(2-thienylcarbonylamino)butyl]}aminomethyl-2,3-dihydrobenzo[b]furan] | – | –
13 | 160 nM | O=C(NCCCCNCC1Cc2ccccc2O1)c1cccs1 (single isomer, unassigned; (-)) [Compound 111A, (-)-2-{N-[4-(2-thienylcarbonylamino)butyl]}aminomethyl-2,3-dihydrobenzo-[b]furan] | – | –
